In ChEMBL document CHEMBL3885881, “DrugMatrix”:

Species: Rattus norvegicus
Assay: DrugMatrix - Regimen: Daily Repeat
Format: toxicity, organism-based, Sprague-Dawley
Parameters: regimen Daily Repeat, gender Male, age 6-8 weeks
Conditions: in vivo, po, route oral GAVAGE, […]; for ABSOLUTE BASOPHIL / ABSOLUTE EOSINOPHIL / ABSOLUTE LYMPHOCYTE / ABSOLUTE MONOCYTE / ABSOLUTE SEGMENTED NEUTROPHIL / BASOPHIL / EOSINOPHIL / ERYTHROCYTE COUNT / HEMATOCRIT / HEMOGLOBIN / LEUKOCYTE COUNT / LYMPHOCYTE / MEAN CORPUSCULAR HEMOGLOBIN / MEAN CORPUSCULAR HEMOGLOBIN CONCENTRATION / MEAN CORPUSCULAR VOLUME / MONOCYTE / NEUTROPHIL / NUCLEATED RED BLOOD CELLS / PLATELET COUNT: tissue Blood; for ALANINE AMINOTRANSFERASE / ALBUMIN / ALKALINE PHOSPHATASE / ASPARTATE AMINOTRANSFERASE / BLOOD UREA NITROGEN / CARBON DIOXIDE / CHLORIDE / CHOLESTEROL / CREATINE PHOSPHOKINASE / CREATININE / GLUCOSE / LACTATE DEHYDROGENASE / LIPASE / PHOSPHORUS / POTASSIUM / SODIUM / TOTAL BILIRUBIN / TOTAL PROTEIN / URIC ACID: tissue Plasma
[1] = 280 mg/kg, 120 h, dose level High, time 5 day
[2] = 72 h, dose 2.8 mg/Kg, dose level Low, time 3 day
[3] = 120 h, dose 2.8 mg/Kg, dose level Low, time 5 day

Compound: CC/C(=C(/CC)c1ccc(O)cc1)c1ccc(O)cc1 [DIETHYLSTILBESTROL]
- ABSOLUTE BASOPHIL [1]: 0 CELLS/uL
- ABSOLUTE EOSINOPHIL [1]: 0 CELLS/uL
- ABSOLUTE LYMPHOCYTE [1]: 5802 CELLS/uL
- ABSOLUTE MONOCYTE [1]: 16.67 CELLS/uL
- ABSOLUTE SEGMENTED NEUTROPHIL [1]: 514.67 CELLS/uL
- BASOPHIL [1]: 0%
- EOSINOPHIL [1]: 0%
- ERYTHROCYTE COUNT [1]: 5.3 x10E6/uL
- HEMATOCRIT [1]: 33.4%
- HEMOGLOBIN [1]: 12.67 G/DL
- LEUKOCYTE COUNT [1]: 6.33 x10E3/uL
- LYMPHOCYTE [1]: 91.33%
- MEAN CORPUSCULAR HEMOGLOBIN [1]: 23.9 pg
- MEAN CORPUSCULAR HEMOGLOBIN CONCENTRATION [1]: 37.97 G/DL
- MEAN CORPUSCULAR VOLUME [1]: 62.97 fL
- MONOCYTE [1]: 0.33%
- NEUTROPHIL [1]: 8.33%
- NUCLEATED RED BLOOD CELLS [1]: 0.33 /100WBC
- PLATELET COUNT [1]: 1806.33 x10E3/uL
- ALANINE AMINOTRANSFERASE [1]: 47.33 u/L
- ALBUMIN [1]: 3.6 G/DL
- ALKALINE PHOSPHATASE [1]: 594.67 u/L
- ASPARTATE AMINOTRANSFERASE [1]: 59 u/L
- BLOOD UREA NITROGEN [1]: 14 mg/dL
- CARBON DIOXIDE [1]: 28.33 mmol/L
- CHLORIDE [1]: 100 MEQ/L
- CHOLESTEROL [1]: 35 mg/dL
- CREATINE PHOSPHOKINASE [1]: 88.33 u/L
- CREATININE [1]: 0.3 mg/dL
- GLUCOSE [1]: 144.67 mg/dL
- LACTATE DEHYDROGENASE [1]: 47.33 u/L
- LIPASE [1]: 9 u/L
- PHOSPHORUS [1]: 9.33 mg/dL
- POTASSIUM [1]: 5.01 MEQ/L
- SODIUM [1]: 147.6 MEQ/L
- TOTAL BILIRUBIN [1]: 0.6 mg/dL
- TOTAL PROTEIN [1]: 6.27 G/DL
- URIC ACID [1]: 0.3 mg/dL
- ABSOLUTE BASOPHIL [2]: 0 CELLS/uL
- ABSOLUTE EOSINOPHIL [2]: 0 CELLS/uL
- ABSOLUTE LYMPHOCYTE [2]: 8607.33 CELLS/uL
- ABSOLUTE MONOCYTE [2]: 102 CELLS/uL
- ABSOLUTE SEGMENTED NEUTROPHIL [2]: 1057.33 CELLS/uL
- BASOPHIL [2]: 0%
- EOSINOPHIL [2]: 0%
- ERYTHROCYTE COUNT [2]: 5.52 x10E6/uL
- HEMATOCRIT [2]: 33.53%
- HEMOGLOBIN [2]: 13.07 G/DL
- LEUKOCYTE COUNT [2]: 9.77 x10E3/uL
- LYMPHOCYTE [2]: 88%
- MEAN CORPUSCULAR HEMOGLOBIN [2]: 23.73 pg
- MEAN CORPUSCULAR HEMOGLOBIN CONCENTRATION [2]: 39.03 G/DL
- MEAN CORPUSCULAR VOLUME [2]: 60.87 fL
- MONOCYTE [2]: 1%
- NEUTROPHIL [2]: 11%
- NUCLEATED RED BLOOD CELLS [2]: 0 /100WBC
- PLATELET COUNT [2]: 1167 x10E3/uL
- ALANINE AMINOTRANSFERASE [2]: 57.33 u/L
- ALBUMIN [2]: 3.83 G/DL
- ALKALINE PHOSPHATASE [2]: 627.67 u/L
- ASPARTATE AMINOTRANSFERASE [2]: 71 u/L
- BLOOD UREA NITROGEN [2]: 7.67 mg/dL
- CARBON DIOXIDE [2]: 26.67 mmol/L
- CHLORIDE [2]: 105.33 MEQ/L
- CHOLESTEROL [2]: 24.33 mg/dL
- CREATINE PHOSPHOKINASE [2]: 222.33 u/L
- CREATININE [2]: 0.12 mg/dL
- GLUCOSE [2]: 155.33 mg/dL
- LACTATE DEHYDROGENASE [2]: 64 u/L
- LIPASE [2]: 8 u/L
- PHOSPHORUS [2]: 9.27 mg/dL
- POTASSIUM [2]: 5.23 MEQ/L
- SODIUM [2]: 147.13 MEQ/L
- TOTAL BILIRUBIN [2]: 0.13 mg/dL
- TOTAL PROTEIN [2]: 5.6 G/DL
- URIC ACID [2]: 0.6 mg/dL
- ABSOLUTE BASOPHIL [3]: 0 CELLS/uL
- ABSOLUTE EOSINOPHIL [3]: 46 CELLS/uL
- ABSOLUTE LYMPHOCYTE [3]: 6817.67 CELLS/uL
- ABSOLUTE MONOCYTE [3]: 68 CELLS/uL
- ABSOLUTE SEGMENTED NEUTROPHIL [3]: 335 CELLS/uL
- BASOPHIL [3]: 0%
- EOSINOPHIL [3]: 0.67%
- ERYTHROCYTE COUNT [3]: 5.68 x10E6/uL
- HEMATOCRIT [3]: 36.33%
- HEMOGLOBIN [3]: 13.8 G/DL
- LEUKOCYTE COUNT [3]: 7.27 x10E3/uL
- LYMPHOCYTE [3]: 93.33%
- MEAN CORPUSCULAR HEMOGLOBIN [3]: 24.3 pg
- MEAN CORPUSCULAR HEMOGLOBIN CONCENTRATION [3]: 38.03 G/DL
- MEAN CORPUSCULAR VOLUME [3]: 64 fL
- MONOCYTE [3]: 0.67%
- NEUTROPHIL [3]: 5.33%
- NUCLEATED RED BLOOD CELLS [3]: 0.33 /100WBC
- PLATELET COUNT [3]: 1219.67 x10E3/uL
- ALANINE AMINOTRANSFERASE [3]: 60.67 u/L
- ALBUMIN [3]: 3.7 G/DL
- ALKALINE PHOSPHATASE [3]: 729.67 u/L
- ASPARTATE AMINOTRANSFERASE [3]: 65.67 u/L
- BLOOD UREA NITROGEN [3]: 11.33 mg/dL
- CARBON DIOXIDE [3]: 26.33 mmol/L
- CHLORIDE [3]: 103.33 MEQ/L
- CHOLESTEROL [3]: 19.33 mg/dL
- CREATINE PHOSPHOKINASE [3]: 162.33 u/L
- CREATININE [3]: 0.19 mg/dL
- GLUCOSE [3]: 151.33 mg/dL
- LACTATE DEHYDROGENASE [3]: 62 u/L
- LIPASE [3]: 9.33 u/L
- PHOSPHORUS [3]: 8.9 mg/dL
- POTASSIUM [3]: 4.57 MEQ/L
- SODIUM [3]: 146.9 MEQ/L
- TOTAL BILIRUBIN [3]: 0.13 mg/dL
- TOTAL PROTEIN [3]: 6.03 G/DL
- URIC ACID [3]: 0.5 mg/dL
